Measured values reported in the NIST ThermoML archive (doi:10.1016/j.fluid.2013.06.021).

Test: xn = mol fraction of the nth substance listed
Conditions: 101 kPa, Liquid; for speed of sound: Sing-around technique in a fixed-path interferometer; for mass density: Vibrating tube method; for viscosity: Capillary tube (Ostwald / Ubbelohde) method

CCCCOCCO [2-butoxyethan-1-ol] + CCCCO
Conditions	mass density, 303.15 K [kg/m3]	mass density, 308.15 K [kg/m3]	mass density, 313.15 K [kg/m3]	speed of sound, 303.15 K [m/s]	speed of sound, 308.15 K [m/s]	speed of sound, 313.15 K [m/s]	viscosity, 308.15 K [mPa·s]
x1 = 0.0516	808.67	804.78	800.853	–	1211.8	1195.2	2.029
x1 = 0.1011	814.69	810.77	806.824	–	1216.3	1199.7	2.008
x1 = 0.1535	820.82	816.87	812.87	–	1220.7	1204.1	1.994
x1 = 0.2027	826.35	822.39	818.34	–	1224.7	1208.2	1.98
x1 = 0.2537	831.87	827.9	823.81	–	1228.7	1212.2	1.966
x1 = 0.3027	836.98	832.98	828.88	–	1232.3	1215.9	–
x1 = 0.3028	–	–	–	–	–	–	1.965
x1 = 0.4	846.49	842.45	838.34	–	1239.1	1222.7	1.968
x1 = 0.5055	855.99	851.91	847.79	1262.6	1245.9	1229.5	1.981
x1 = 0.6054	864.3	860.19	856.04	1268.6	1251.9	1235.4	2.006
x1 = 0.7025	871.83	867.68	863.5	1274	1257.4	1240.7	2.045
x1 = 0.8042	879.17	875.01	870.78	1279.4	1262.8	1246	2.106
x1 = 0.8552	882.67	878.5	874.26	1282	1265.3	1248.5	2.138
x1 = 0.906	886.07	881.88	877.63	1284.5	1267.8	1251	2.175
x1 = 0.9526	889.1	884.89	880.64	1286.7	1270	1253.2	2.204
